# Like-named read-outs stand apart in the source and are kept apart here.
# Tests used:
# [1] = test system: "5-HT1 -like" receptors; details: agonistic action at "5-HT1 -like" receptors; background statement; cited from earlier work
# [2] = test system: 5HT1D receptors; test: Binding to 5HT1D receptors (125I-GTI displacement, calf caudate nucleus membranes); details: ratio of binding IC50 values, 3H-8-OH-DPAT over 125I-GTI
# Method: (§1) Binding to 5HT1D Receptors
# (§2) Assays were performed essentially as described by Bruinvels et al. Varying amounts of tested drugs were added to 0.25 mL final volume reaction that included 100 μg of calf caudate nucleus membrane protein, 100 pM (Serotonin-5-0-Carboxymethyl-Glycyl[^125 I]Tyrosinamide (^125 I-GTI), 4 mM CaCl2 and 50 mM Tris HCl buffer, pH 7.4. After incubation at 37° C. for 30 minutes, samples were filtered under reduced pressure using glass fibre filters. The filters were washed with ice-cold buffer and dried. Non-specific binding was defined as that obtained in the presence of 10 μM 5HT. Trapped radioactivity was quantified using a gamma counter. Displacement curves were constructed and the concentration displacing 50% of radioligand was calculated for each tested compound using non-linear regression. Data from at least three different assays run in duplicate was averaged. (Bruinvels A. T.; Lery H.; Palacios J. M. and Hoyer D. 5-HT1D binding sites in various species: similar pharmacological profile in dog, monkey, calf, guinea-pig and human brain membranes. Naunyn-Schmiedeberg's Arch. Pharmacol. (in press)).
# [3] = biological target: T1, 5HT1D receptors (Bos taurus, UniProt F1MGM3); test: as above
# T1 construct: calf caudate nucleus membrane protein; from tissue; host or cells: calf caudate nucleus membranes
# T1 sequence (F1MGM3 1-403): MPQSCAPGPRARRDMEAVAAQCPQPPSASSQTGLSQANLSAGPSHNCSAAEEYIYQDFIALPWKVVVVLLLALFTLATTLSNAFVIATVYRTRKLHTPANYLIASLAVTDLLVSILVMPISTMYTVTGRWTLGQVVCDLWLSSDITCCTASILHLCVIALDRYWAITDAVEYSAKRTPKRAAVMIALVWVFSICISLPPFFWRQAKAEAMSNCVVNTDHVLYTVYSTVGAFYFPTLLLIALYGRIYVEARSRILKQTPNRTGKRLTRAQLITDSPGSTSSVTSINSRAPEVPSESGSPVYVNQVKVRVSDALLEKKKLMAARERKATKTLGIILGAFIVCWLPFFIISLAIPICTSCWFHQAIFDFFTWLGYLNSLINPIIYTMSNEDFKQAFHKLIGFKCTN
# Method: as §1, §2
# [4] = biological target: T2, 5HT1A receptors (Rattus norvegicus, UniProt P19327); test: Binding to 5HT1A receptors (3H-8-OH-DPAT displacement, rat hippocampus membranes)
# T2 sequence (P19327 1-422): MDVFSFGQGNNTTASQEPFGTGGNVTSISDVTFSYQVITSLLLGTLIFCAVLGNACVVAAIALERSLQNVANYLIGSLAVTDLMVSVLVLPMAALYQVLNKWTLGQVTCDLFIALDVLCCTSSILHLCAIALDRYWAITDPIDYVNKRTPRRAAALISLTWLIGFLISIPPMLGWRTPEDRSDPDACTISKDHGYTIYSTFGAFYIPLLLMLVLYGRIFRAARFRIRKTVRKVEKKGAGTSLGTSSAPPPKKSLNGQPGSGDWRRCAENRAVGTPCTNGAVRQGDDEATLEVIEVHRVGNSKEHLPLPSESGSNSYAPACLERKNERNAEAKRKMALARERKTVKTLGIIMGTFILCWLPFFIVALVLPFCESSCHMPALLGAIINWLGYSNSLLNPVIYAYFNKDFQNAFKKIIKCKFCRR
# Method: Binding to 5HT1A receptors
# Assays were performed essentially as described by Gozlan et al (1983). Varying amounts of tested drugs were added to 1 mL final volume reaction mixtures that included 100 μg of rat hippocampus membrane protein, 0.5 nM ^3 H-8-OH-DPAT, 4 mM CaCl2, 0.1% ascorbic acid, 10 μM pargyline and 50 mM Tris HCl buffer, pH 7.4. After incubation at 25° C. for 30 minutes, samples were filtered under reduced pressure using glass fibre filters. The filters were washed with ice-cold buffer and dried. Non-specific binding was defined as that obtained in the presence of 10 μM 5HT. Radioactivity was quantified by scintillation counting and data was handled as described for the 5HT1D binding assay. (Gozlan H.; El Mestikawy S.; Pichat L.; Glowinski J. and Hamon M. (1983). Identification of presynaptic serotonin autoreceptors using a new ligand:^3 H-PAT. Nature 305, 140-142).
# [5] = test system: Dog saphenous vein; test: Dog saphenous vein isometric recording (contraction, pD2); type: cell-based, beagle dog; details: Canis lupus familiaris; isolated lateral saphenous vein rings, 37° C., in presence of 5-HT2, H1 and muscarinic antagonists; serotonin 1 μM as reference standard
# Method: Isometric recordings were performed essentially as described by Humphrey et al (1988). Briefly, lateral saphenous vein ring preparations (3 mm. wide) removed from anaesthetized beagle dogs were suspended under 2g. resting tension, in 30 mL organ baths containing Krebs at 37° C. The experiments were carried out in the presence of 5-HT2, H1 and muscarinic antagonists and serotonin 1 μM was used as quantitative reference standard.
# (Humphrey P. P. A.; Feniuk W.; Perren M. J.; Connor H. E.; Oxford A. W .; Coates I. H. and Butina D. (1988). GR 43175, a selective agonist for the 5-HT1-like receptor in dog isolated saphenous vein. Br. J. Pharmac. 94, 1123-1132).
# [6] = test system: 5-HT1A receptor; details: background statement; cited from earlier work
# [7] = test system: 5-HT1D receptor; details: background statement; cited from earlier work
# [8] = test system: 5-HT1A receptor; details: attributed to affinity for 5-HT1A receptor; cited from earlier work
# [9] = 5HT1D, calf caudate nucleus membrane, 100 pM 125I-GTI, pH 7.4, 37° C., 30 minutes, read-out: Binding IC50 125I-GTI
# [10] = 5HT1A, rat hippocampus membrane, 0.5 nM 3H-8-OH-DPAT, pH 7.4, 25° C., 30 minutes, read-out: Binding IC50 3H-8-OH-DPAT
smiles,measurement,setting,value
CN1C[C@H](C(=O)N[C@]2(C)O[C@@]3(O)[C@@H]4CCCN4C(=O)[C@H](Cc4ccccc4)N3C2=O)C=C2c3cccc4[nH]cc(c34)C[C@H]21 [ergotamine],vasoconstrictor action in the carotid vascular bed,[1],vasoconstrictor action in the carotid vascular bed
"CN(C)CCc1c[nH]c2ccc(CS(=O)(=O)N3CCCCC3)cc12.Cl [Compound 2, 1-[[3-(2-dimethylaminoethyl)-5-indolyl]methanesulphonyl]piperidine hydrochloride]",5HT1A/5HT1D,[2],49.3
same,IC50,[3],6.9 ± 0.4 nM
same,IC50,[4],340 ± 0.5 nM
"CN(C)CCc1c[nH]c2ccc(CS(=O)(=O)N3CCCC3)cc12.Cl [Compound 1, 1-[[3-(2-dimethylaminoethyl)-5-indolyl]methanesulphonyl]-pyrrolidine hydrochloride]",EC50,[5],871 nM
same,5HT1A/5HT1D,[2],77.1
same,IC50,[3]; [9],10.7 ± 0.4 nM
same,IC50,[4]; [10],825 ± 69 nM
"NCCc1c[nH]c2ccc(O)cc12 [serotonine, 5-Hydroxytryptamine]",vasoconstrictor action in the carotid vascular bed,[1],vasoconstrictor action in the carotid vascular bed
"CNS(=O)(=O)Cc1ccc2[nH]cc(CCN(C)C)c2c1 [Sumatriptan, reference compound]",EC50,[5],871 nM
same,5HT1A/5HT1D,[2],44.2
same,IC50,[3]; [9],10.4 ± 1 nM
same,IC50,[4],460 ± 67 nM
same,affinity for 5-HT1A receptor,[6],very important affinity for 5-HT1A receptor
same,affinity for 5-HT1D receptor,[7],high affinity for 5-HT1D receptor
same,hypotension and other side effects,[8],causes hypotension by a central nervous system action and other side effects
CCOC(=O)N1CCN(S(=O)(=O)Cc2ccc3[nH]cc(CCN(C)C)c3c2)CC1 [Compound 11],EC50,[5],339 nM
same,5HT1A/5HT1D,[2],265.6
same,IC50,[3],3.2 ± 0.3 nM
same,IC50,[4]; [10],850 ± 40 nM

# Source: patent US5565447A, “Indole derivatives” (Laboratorios Almirall S.A., priority 1992, dated 1996)
